In the NIST ThermoML archive (doi:10.1021/acs.jced.7b00665):
± gives the expanded uncertainty stated by the source.

Columns and labels:
[1] = Crystal; DTA
[2] = Molar enthalpy of transition or fusion; conditions: Crystal; DSC

Normal melting temperature [1]: 32.47 ± 0.61 °C
Molar enthalpy of transition or fusion [2]: 3.28 ± 0.287 kcal/mol
SMILES: OC/C=C/c1ccccc1 [trans-cinnamyl alcohol]
